According to paper PMC9705739, “Canagliflozin, characterized as a HDAC6 inhibitor, inhibits gastric cancer metastasis” (Frontiers in Oncology, 2022):

Biological target: T1, HDAC6 (Homo sapiens, UniProt Q9UBN7)
T1 sequence (Q9UBN7 1-1215): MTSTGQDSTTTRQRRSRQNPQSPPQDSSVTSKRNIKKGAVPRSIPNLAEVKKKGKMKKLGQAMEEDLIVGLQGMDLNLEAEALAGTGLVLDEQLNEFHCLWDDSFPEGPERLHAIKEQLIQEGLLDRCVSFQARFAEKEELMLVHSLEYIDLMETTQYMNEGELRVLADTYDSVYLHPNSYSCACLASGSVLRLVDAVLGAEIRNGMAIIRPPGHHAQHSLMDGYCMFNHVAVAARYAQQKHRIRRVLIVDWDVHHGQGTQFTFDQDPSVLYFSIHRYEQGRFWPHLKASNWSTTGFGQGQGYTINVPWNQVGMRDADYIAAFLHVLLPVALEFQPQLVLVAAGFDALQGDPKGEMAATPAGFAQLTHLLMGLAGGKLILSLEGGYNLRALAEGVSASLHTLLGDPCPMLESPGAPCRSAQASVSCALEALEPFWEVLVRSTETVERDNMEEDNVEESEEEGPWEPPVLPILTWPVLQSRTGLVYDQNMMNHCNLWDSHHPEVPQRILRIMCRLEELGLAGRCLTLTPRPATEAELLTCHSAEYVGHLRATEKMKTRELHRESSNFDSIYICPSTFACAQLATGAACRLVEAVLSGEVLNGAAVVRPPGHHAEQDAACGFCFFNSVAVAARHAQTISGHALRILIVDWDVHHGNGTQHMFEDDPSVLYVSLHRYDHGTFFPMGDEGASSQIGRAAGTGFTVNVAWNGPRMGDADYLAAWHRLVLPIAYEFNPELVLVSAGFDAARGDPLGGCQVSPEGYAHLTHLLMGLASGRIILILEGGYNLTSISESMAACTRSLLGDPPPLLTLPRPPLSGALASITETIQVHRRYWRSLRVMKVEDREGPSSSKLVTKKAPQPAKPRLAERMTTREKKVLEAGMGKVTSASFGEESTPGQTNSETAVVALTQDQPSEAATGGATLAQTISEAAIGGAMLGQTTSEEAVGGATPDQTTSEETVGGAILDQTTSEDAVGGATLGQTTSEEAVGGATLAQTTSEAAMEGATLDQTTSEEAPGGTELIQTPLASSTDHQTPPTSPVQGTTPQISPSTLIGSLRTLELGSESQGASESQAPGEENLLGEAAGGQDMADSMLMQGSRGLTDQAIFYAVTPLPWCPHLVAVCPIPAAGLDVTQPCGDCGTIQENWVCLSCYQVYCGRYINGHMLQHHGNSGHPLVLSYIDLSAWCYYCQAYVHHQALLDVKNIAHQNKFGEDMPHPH
Experiment: SPR (Biacore T200, immobilized HDAC6); also enzymatic inhibition IC50 […] and CETSA in MGC-803 cells
Type: binding

Kd: 859 nM
SMILES: Cc1ccc([C@@H]2O[C@H](CO)[C@@H](O)[C@H](O)[C@H]2O)cc1Cc1ccc(-c2ccc(F)cc2)s1 [canagliflozin]
